Measurements taken from patent publication US20110150821A1, “METHODS AND CROSSLINKED POLYMER COMPOSITIONS FOR CARTILAGE REPAIR” (ANGIOTECH PHARMACEUTICALS (US), INC., priority 2004, published 2011).

Columns and labels:
[1] = cited from earlier work
[2] = tested on: Chick Chorioallantoic Membrane (CAM) vasculature; assay: Chick chorioallantoic membrane (CAM) angiogenesis assay; details: for INHIBITION/N: 48 hours exposure; for effect on angiogenesis: 48 hours after application to the CAM
[3] = within 48 hours, depending on concentration

SMILES | solubility in water [1] | INHIBITION/N ([2]; 1 μg in methylcellulose (10 μl) disk on CAM) | INHIBITION/N ([2]; 5 μg in methylcellulose (10 μl) disk on CAM) | INHIBITION/N ([2]; 10 μg in methylcellulose (10 μl) disk on CAM) | effect on angiogenesis [2] | maximal avascular zone diameter [2, 3] [mm] | maximal avascular zone on the avascular gradient scale [2, 3]
O=C1c2c(O)ccc(O)c2C(=O)c2c(NCCNCCO)ccc(NCCNCCO)c21 [mitoxantrone] | insoluble in water | 18/24 | 21/24 | 18/22 | angiogenesis was inhibited | 6 | 3
CC(=O)O[C@H]1C(=O)[C@@]2(C)[C@H]([C@H](OC(=O)c3ccccc3)[C@]3(O)C[C@H](OC(=O)[C@H](O)[C@@H](NC(=O)c4ccccc4)c4ccccc4)C(C)=C1C3(C)C)[C@]1(OC(C)=O)CO[C@@H]1C[C@@H]2O [paclitaxel] | – | – | – | – | angiogenesis was inhibited | – | 3
